Counter-ions that a name gives are not always drawn.
Assays:
[1] = system: SD rat; experiment: 32P-phosphate oral loading test using SD rat (phosphorus absorption inhibitory effect); type: in vivo; conditions: Rattus norvegicus, 0.5 h; SD male rats, oral dose 3 mg/kg; plasma radioactivity 30 minutes after 32P-phosphate solution, vs control group; read-out: Rate of inhibition of phosphate absorption
Procedure, shortened: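 Male 8-week-old SD rats were dosed orally at 5 ml/kg with compound at 0.2 mg/mL or 0.6 mg/mL in water, then 5 min later given 32P-phosphate in 1.3 mM NaH2PO4 (5 ml/kg). Plasma radioactivity at 30 minutes was counted by liquid scintillation; inhibition (%) was calculated relative to the water-dosed control group.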

[2] = biological target: T1, human NHE3 (Homo sapiens, UniProt P48764); experiment: NHE3 inhibition test (recovery of intracellular pH in cell line stably expressing human NHE3); type: cell-based; conditions: OK cells deficient in endogenous NHE stably expressing human NHE3; BCECF fluorescence, initial rate of pH recovery; read-out: human NHE3 inhibitory activity IC50
T1 sequence (P48764 26-834): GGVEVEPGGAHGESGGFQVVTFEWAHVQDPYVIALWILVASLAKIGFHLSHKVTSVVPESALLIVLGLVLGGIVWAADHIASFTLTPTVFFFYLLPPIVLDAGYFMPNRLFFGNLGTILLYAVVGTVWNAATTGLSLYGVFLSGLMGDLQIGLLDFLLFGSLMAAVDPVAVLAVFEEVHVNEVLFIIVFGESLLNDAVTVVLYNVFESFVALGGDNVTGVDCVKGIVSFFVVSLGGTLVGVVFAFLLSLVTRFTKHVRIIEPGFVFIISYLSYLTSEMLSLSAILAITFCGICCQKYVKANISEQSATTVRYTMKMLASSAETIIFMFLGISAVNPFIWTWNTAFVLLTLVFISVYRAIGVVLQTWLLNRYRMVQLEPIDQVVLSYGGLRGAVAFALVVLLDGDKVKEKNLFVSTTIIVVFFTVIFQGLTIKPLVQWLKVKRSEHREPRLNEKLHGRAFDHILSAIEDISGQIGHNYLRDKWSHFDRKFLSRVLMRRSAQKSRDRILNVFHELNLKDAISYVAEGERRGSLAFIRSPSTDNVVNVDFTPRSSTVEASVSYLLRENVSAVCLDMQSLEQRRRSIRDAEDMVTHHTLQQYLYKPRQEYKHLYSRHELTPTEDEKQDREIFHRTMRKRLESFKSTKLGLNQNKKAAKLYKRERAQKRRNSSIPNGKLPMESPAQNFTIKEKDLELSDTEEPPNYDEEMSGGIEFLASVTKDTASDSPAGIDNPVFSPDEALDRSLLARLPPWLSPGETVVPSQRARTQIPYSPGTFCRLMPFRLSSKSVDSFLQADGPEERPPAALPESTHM
Procedure, shortened: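 Opossum kidney cells lacking endogenous NHE, stably expressing human NHE3, loaded with BCECF-AM and acid-loaded by NH4Cl washout. Compound in Na-free buffer, then Na-containing buffer (pH 7.4) added; initial pH-recovery rate by BCECF fluorescence, IC50 versus no-compound recovery.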

SMILES	inhibition in vivo at 3 mg/kg [1]	IC50 [2]
CN1Cc2c(Cl)cc(Cl)cc2[C@H](c2cccc(-c3cn(CCOCCOCCNC(=O)Nc4ccc(NC(=O)NCCOCCOCCn5cc(-c6cccc([C@@H]7CN(C)Cc8c(Cl)cc(Cl)cc87)c6)nn5)cc4)nn3)c2)C1 [Example 6-5, 1,1′-Benzene-1,4-diylbis[3-(2-{2-[2-(4-{3-[(4S)-6,8-dichloro-2-methyl-1,2,3,4-tetrahydroisoquinolin-4-yl]phenyl}-1H-1,2,3-triazol-1-yl)ethoxy]ethoxy}ethyl)urea]hydrochloride]	46%	9.5 nM
CN1Cc2c(Cl)cc(Cl)cc2[C@H](c2cccc(-c3cc(NCCOCCOCCNC(=O)NCCCCNC(=O)NCCOCCOCCNc4cnnc(-c5cccc([C@@H]6CN(C)Cc7c(Cl)cc(Cl)cc76)c5)c4)cnn3)c2)C1 [Example 7-6, 1,1′-Butane-1,4-diylbis {3-[2-(2-{2-[(6-{3-[(4S)-6,8-dichloro-2-methyl-1,2,3,4-tetrahydroisoquinolin-4-yl]phenyl}pyridazin-4-yl)amino]ethoxy}ethoxy)ethyl]urea}pentahydrochloride]	24%	10 nM
CN1Cc2c(Cl)cc(Cl)cc2[C@H](c2cccc(-c3cn(CCOCCOCCOCCOCCNC(=O)NCCOCCOCCOCCOCCn4cc(-c5cccc([C@@H]6CN(C)Cc7c(Cl)cc(Cl)cc76)c5)nn4)nn3)c2)C1 [Example 7-43, 1,3-Bis[14-(4-{3-[(4S)-6,8-dichloro-2-methyl-1,2,3,4-tetrahydroisoquinolin-4-yl]phenyl}-1H-1,2,3-triazol-1-yl)-3,6,9,12-tetraoxatetradec-1-yl]urea hydrochloride]	37%	8.5 nM
CN1Cc2c(Cl)cc(Cl)cc2[C@H](c2cccc(-c3cn(CCOCCOCCOCCNC(=O)Nc4ccc(NC(=O)NCCOCCOCCOCCn5cc(-c6cccc([C@@H]7CN(C)Cc8c(Cl)cc(Cl)cc87)c6)nn5)cc4)nn3)c2)C1 [Example 7-24, 1,1′-Benzene-1,4-diylbis{3-[2-(2-{2-[2-(4-{3-[(4S)-6,8-dichloro-2-methyl-1,2,3,4-tetrahydroisoquinolin-4-yl]phenyl}-1H-1,2,3-triazol-1-yl)ethoxy]ethoxy}ethoxy)ethyl]urea}hydrochloride]	31%	5.6 nM
CN1Cc2c(Cl)cc(Cl)cc2[C@H](c2cccc(-c3cc(NCCOCCOCCOCCNC(=O)NCCCCNC(=O)NCCOCCOCCOCCNc4cc(-c5cccc([C@@H]6CN(C)Cc7c(Cl)cc(Cl)cc76)c5)ncn4)ncn3)c2)C1 [Example 7-40, 1,1′-Butane-1,4-diylbis(3-{2-[2-(2-{2-[(6-{3-[(4S)-6,8-dichloro-2-methyl-1,2,3,4-tetrahydroisoquinolin-4-yl]phenyl}pyrimidin-4-yl)amino]ethoxy}ethoxy)ethoxy]ethyl}urea) trifluoroacetate]	28%	11 nM
CN1Cc2c(Cl)cc(Cl)cc2[C@H](c2cccc(-c3cn(CCOCCOCCOCCOCCNC(=O)[C@H](O)[C@@H](O)C(=O)NCCOCCOCCOCCOCCn4cc(-c5cccc([C@@H]6CN(C)Cc7c(Cl)cc(Cl)cc76)c5)nn4)nn3)c2)C1 [Example 6-9, (2R,3R)—N,N′-Bis[14-(4-{3-[(4S)-6,8-dichloro-2-methyl-1,2,3,4-tetrahydroisoquinolin-4-yl]phenyl}-1H-1,2,3-triazol-1-yl)-3,6,9,12-tetraoxatetradec-1-yl]-2,3-dihydroxybutanediamide hydrochloride]	53%	4.1 nM
